Test results published in patent publication US4418075A, “Epoxysuccinyl amino acid derivatives” (Taisho Pharmaceutical Co., Ltd., priority 1979, dated 1983).

Columns and labels:
[1] = in vivo
Experimental: The response was evaluated by the blueing spot at 15 minutes after the dye injection.

[2] = Concentration in rat plasma after subcutaneous administration; assay type: in vivo; settings: sc, rats, 50 mg/kg, an hour after administration
Experimental: The compounds of the present invention are better absorbed by the subcutaneous route in mammals such as rats or rabbits, as compared with the epoxysuccinic acid derivatives of the German Patent Laid Open Application described above and Chemical Abstracts, 87, 68129a (1977). To determine absorption, these compounds were administered subcutaneously to rats at a dose of 50 mg/kg, and the concentration of the test compound in rat plasma at an hour after the administration is shown in following Table 1.

papain = molecular target: T1, papain (Carica papaya, UniProt P00784); test: Papain inhibitory activity (method of K. Hanada et al.); assay type: biochemical; settings: amount of inhibitor for 50% inhibition; papain 80 μg/ml, Sigma, twice crystallized
T1 construct: purchased Sigma Chem. Co
T1 sequence (P00784 134-345): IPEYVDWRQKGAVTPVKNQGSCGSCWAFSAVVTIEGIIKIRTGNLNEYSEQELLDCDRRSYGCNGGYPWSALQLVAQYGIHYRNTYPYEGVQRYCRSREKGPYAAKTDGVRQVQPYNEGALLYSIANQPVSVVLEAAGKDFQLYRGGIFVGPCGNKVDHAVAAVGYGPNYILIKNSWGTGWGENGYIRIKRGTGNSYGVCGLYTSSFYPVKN
Experimental: Papain inhibitory activity of the compounds of the present invention was assayed by the method of K. Hanada et al [Argic. Biol. Chem., 42, (3)523(1978)] using papain (80 μg/ml, Sigma Chem. Co.) after twice crystallization.

[3] = molecular target: T2, CANP prepared from a muscle of hereditary muscular dystrophy chicken (Gallus gallus, UniProt P00789); test: CANP inhibitory activity (method of Ishiura et al.); assay type: biochemical; settings: 50% inhibition as molar ratio to the enzyme
T2 construct: CANP prepared from a muscle of hereditary muscular dystrophy chicken; from tissue; host or cells: muscle of hereditary muscular dystrophy chicken
T2 sequence (P00789 1-705): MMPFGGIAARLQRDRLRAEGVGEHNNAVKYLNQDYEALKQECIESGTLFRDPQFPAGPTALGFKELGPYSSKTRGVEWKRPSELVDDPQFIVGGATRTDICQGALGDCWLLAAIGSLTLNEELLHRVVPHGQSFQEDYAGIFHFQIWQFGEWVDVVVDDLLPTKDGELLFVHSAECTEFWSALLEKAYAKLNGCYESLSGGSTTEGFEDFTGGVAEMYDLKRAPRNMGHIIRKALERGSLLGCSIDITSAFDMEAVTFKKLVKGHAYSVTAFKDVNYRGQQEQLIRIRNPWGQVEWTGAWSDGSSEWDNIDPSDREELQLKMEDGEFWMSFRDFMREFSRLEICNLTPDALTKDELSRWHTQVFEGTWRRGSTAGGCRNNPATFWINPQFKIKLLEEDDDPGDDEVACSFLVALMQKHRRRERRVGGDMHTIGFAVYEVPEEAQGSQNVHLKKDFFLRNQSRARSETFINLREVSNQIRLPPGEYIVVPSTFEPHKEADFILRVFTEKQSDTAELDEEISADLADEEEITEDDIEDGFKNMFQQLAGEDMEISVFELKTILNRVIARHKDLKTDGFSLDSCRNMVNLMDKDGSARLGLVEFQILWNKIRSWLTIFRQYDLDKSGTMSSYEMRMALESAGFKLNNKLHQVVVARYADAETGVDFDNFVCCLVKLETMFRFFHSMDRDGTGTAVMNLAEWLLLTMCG
Experimental: Their muscular dystrophy inhibitory activity was assayed by the method of Ishiura et al., [J. Biochem., 84, 225 (1978)] using CANP prepared from a muscle of hereditary muscular dystrophy chicken, and the resulting value for 50% inhibition in the molar ratios for the enzyme expressed as ID50 (mole/mole) is shown in Table 1 below.

| Structure (SMILES) | Acceleration of vascular permeability, Relative effect (%) to E-64 [1] | concentration at 1 h [2] | Papain inhibitory activity ID50 (papain) | CANP Inhibitory Activity ID50 (mole/mole) [3] |
| --- | --- | --- | --- | --- |
| CC(C)C[C@H](NC(=O)C1OC1C(=O)O)C(=O)NCCCCCN (mixture of isomers) [Compound 2, N-[N-(DL-3-trans-carboxyoxirane-2-carbonyl)-L-leucyl]-1,5-diaminopentane] | 2.3% | 20000 ng/mL | 0.105 µg | 54 mole/mole |
| CC(C)C[C@H](NC(=O)C1OC1C(=O)O)C(=O)NCCCCCCCNC(=O)OCc1ccccc1 (mixture of isomers) [Compound 3, N-[N-(DL-3-trans-carboxyoxirane-2-carbonyl)-L-leucyl]-N'-benzyloxycarbonyl-1,7-diaminoheptane] | 2.4% | 11000 ng/mL | 0.203 µg | 20 mole/mole |
| CC(C)C[C@H](NC(=O)[C@H]1O[C@@H]1C(=O)O)C(=O)NCCCCCCCN [Compound 1, N-[N-(L-3-trans-carboxyoxirane-2-carbonyl)-L-leucyl]-1,7-diaminoheptane] | 2.8% | 15000 ng/mL | 0.103 µg | 33 mole/mole |
| CC(C)C[C@H](NC(=O)[C@H]1O[C@@H]1C(=O)O)C(=O)NCCCCN=C(N)N [Compound E-64, N-[N-(L-3-trans-carboxyoxirane-2-carbonyl)-L-leucyl]agmatine, reference compound] | 100.0% |  |  |  |
| CCOC(=O)C1OC1C(=O)N[C@@H](CC(C)C)C(=O)NCCCCNC(=O)OCc1ccccc1 (stereo partly drawn) [F, N--[N--(DL3-trans-ethoxycarbonyloxirane-2-carbonyl)-L-leucyl] N'--benzyloxycarbonyl1,4-diaminobutane, reference compound] |  | < 1000 ng/mL |  | 480 mole/mole |
